Data taken from ChEMBL document CHEMBL4028801, “A multifactorial approach to hepatobiliary transporter assessment enables improved therapeutic compound development” (Toxicol Sci, 2013).
Where a name gives a salt, the structure may show the parent alone.

How the values were obtained:
[1] = molecular target: Bile salt export pump (Homo sapiens, UniProt O95342); assay: Inhibition of human BSEP overexpressed in Sf9 cell membrane vesicles assessed as uptake of [3H]-taurocholate in presence of ATP measured after 15 to 20 mins by membrane vesicle transport assay; format: ADME, cell-based
Chain of Bile salt export pump (O95342 whole entry): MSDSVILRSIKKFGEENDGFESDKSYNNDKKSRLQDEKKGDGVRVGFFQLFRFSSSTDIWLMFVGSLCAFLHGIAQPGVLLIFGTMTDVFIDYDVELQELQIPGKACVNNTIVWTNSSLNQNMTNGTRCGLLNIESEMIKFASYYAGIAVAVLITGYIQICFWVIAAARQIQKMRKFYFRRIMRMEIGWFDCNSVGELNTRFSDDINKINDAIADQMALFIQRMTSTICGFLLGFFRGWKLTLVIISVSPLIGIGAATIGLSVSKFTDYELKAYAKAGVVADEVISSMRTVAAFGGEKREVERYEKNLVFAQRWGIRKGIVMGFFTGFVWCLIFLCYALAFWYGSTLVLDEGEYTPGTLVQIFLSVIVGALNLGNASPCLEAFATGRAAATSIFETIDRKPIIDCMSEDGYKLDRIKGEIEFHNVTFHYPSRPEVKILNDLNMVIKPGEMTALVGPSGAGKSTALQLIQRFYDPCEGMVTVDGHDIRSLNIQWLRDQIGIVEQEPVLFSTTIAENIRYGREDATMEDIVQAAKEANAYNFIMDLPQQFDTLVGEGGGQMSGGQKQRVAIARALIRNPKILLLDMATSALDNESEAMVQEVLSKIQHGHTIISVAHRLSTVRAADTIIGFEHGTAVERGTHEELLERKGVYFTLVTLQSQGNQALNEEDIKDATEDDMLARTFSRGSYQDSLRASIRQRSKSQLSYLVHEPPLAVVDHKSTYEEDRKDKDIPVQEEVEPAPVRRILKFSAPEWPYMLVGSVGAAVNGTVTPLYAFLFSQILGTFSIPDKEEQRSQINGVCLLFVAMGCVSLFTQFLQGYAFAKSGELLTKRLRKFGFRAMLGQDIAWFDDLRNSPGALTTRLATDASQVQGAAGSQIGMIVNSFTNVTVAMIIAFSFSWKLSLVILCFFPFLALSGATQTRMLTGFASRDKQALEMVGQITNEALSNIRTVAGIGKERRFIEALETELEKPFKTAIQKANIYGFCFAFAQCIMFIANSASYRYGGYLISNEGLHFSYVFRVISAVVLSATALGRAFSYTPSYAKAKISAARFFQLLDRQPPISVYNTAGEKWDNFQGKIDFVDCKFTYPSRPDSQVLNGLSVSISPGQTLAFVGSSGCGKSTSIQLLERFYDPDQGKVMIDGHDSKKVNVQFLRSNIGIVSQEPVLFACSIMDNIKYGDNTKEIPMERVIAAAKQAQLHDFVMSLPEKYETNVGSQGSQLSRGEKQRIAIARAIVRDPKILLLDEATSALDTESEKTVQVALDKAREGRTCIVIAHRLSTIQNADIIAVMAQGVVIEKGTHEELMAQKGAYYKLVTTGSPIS

[2] = molecular target: ATP-binding cassette sub-family C member 2 (Homo sapiens, UniProt Q92887); assay: Inhibition of human MRP2 overexpressed in Sf9 cell membrane vesicles assessed as uptake of [3H]-estradiol-17beta-D-glucuronide in presence of ATP and GSH measured after 20 mins by membrane vesicle transport assay
Chain of ATP-binding cassette sub-family C member 2 (Q92887 whole entry): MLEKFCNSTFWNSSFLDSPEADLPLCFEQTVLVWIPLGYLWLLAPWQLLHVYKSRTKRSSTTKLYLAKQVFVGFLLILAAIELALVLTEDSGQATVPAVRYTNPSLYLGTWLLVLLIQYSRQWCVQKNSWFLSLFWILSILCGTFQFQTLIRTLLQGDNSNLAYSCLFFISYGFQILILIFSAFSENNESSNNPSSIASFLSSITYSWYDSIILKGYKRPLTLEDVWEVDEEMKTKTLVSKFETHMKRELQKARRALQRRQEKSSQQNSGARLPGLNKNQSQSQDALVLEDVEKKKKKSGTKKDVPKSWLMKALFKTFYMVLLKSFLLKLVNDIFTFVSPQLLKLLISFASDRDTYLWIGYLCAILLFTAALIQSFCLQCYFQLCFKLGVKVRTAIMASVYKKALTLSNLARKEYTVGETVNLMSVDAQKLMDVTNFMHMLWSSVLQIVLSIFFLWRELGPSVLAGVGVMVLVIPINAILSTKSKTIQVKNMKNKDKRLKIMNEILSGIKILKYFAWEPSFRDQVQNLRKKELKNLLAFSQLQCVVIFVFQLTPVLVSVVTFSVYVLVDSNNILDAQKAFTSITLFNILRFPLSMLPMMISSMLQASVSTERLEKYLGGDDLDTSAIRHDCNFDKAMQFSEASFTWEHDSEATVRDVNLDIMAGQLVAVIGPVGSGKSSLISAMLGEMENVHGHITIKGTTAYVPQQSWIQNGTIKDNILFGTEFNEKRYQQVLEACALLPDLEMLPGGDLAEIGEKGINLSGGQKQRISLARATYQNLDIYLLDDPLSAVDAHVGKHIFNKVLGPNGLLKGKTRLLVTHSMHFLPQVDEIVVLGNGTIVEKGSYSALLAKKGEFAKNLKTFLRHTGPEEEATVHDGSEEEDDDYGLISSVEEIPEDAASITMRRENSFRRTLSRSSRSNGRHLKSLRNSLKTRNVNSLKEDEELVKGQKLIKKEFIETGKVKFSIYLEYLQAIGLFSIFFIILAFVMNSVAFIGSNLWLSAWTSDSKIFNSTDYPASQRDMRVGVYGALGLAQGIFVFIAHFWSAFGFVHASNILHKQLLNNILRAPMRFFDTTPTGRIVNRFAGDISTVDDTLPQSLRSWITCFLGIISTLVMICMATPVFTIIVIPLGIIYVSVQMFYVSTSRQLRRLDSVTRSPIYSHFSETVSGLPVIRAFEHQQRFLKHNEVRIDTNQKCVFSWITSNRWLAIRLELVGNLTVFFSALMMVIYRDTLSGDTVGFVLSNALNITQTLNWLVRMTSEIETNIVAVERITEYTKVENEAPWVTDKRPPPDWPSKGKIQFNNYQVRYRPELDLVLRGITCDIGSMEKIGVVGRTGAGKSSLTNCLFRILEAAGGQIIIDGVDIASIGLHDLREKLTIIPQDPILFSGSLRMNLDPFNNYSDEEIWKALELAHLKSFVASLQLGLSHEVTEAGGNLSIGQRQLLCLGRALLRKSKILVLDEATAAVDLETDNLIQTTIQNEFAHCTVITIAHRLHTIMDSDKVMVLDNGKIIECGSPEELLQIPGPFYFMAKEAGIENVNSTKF

[3] = molecular target: ATP-binding cassette sub-family C member 3 (Homo sapiens, UniProt O15438); assay: Inhibition of human MRP3 overexpressed in Sf9 insect cell membrane vesicles assessed as uptake of [3H]-estradiol-17beta-D-glucuronide in presence of ATP and GSH measured after 10 mins by membrane vesicle transport assay; format: ADME, cell-based
Chain of ATP-binding cassette sub-family C member 3 (O15438 whole entry): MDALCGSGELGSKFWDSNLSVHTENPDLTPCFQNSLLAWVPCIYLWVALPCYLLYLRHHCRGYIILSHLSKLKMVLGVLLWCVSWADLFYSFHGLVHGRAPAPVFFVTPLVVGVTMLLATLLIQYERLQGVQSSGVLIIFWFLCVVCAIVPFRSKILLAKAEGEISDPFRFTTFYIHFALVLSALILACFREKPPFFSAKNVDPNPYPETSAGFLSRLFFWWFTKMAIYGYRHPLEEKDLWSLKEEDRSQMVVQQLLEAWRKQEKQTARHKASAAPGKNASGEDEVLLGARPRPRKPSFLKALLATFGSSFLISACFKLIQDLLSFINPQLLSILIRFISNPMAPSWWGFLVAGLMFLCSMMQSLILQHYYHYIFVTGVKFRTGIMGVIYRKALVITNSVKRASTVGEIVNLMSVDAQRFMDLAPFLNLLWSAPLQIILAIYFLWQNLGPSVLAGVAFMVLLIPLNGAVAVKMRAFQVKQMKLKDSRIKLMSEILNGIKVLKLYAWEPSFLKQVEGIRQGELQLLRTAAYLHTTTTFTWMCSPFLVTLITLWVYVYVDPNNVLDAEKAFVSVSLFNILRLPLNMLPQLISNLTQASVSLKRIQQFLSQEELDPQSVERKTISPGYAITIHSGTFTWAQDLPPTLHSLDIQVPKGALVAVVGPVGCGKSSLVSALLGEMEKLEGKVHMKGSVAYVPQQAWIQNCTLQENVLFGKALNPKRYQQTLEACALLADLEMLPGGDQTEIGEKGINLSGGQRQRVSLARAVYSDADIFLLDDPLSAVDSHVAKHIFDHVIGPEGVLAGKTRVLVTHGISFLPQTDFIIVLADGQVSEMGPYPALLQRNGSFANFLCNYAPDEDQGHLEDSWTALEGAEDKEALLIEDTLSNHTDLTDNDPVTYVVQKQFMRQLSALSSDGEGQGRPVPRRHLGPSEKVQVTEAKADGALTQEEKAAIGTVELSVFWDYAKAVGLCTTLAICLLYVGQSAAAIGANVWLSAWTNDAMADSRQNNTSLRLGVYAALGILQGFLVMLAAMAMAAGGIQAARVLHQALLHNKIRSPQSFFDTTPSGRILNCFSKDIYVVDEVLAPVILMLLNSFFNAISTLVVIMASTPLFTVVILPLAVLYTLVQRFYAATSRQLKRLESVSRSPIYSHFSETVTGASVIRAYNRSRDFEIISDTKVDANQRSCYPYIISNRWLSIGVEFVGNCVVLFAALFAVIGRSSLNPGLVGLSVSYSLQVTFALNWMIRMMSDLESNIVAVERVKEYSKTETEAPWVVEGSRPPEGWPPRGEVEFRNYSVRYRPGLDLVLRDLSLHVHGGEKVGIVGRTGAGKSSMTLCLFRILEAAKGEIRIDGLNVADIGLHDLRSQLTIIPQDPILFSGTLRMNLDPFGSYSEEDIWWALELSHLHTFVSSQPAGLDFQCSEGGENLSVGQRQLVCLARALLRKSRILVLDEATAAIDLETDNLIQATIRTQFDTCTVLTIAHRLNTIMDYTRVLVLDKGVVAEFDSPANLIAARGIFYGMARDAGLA

[4] = molecular target: T1, ATP-binding cassette sub-family C member 4 (Homo sapiens, UniProt O15439); assay: Inhibition of human MRP4 overexpressed in Sf9 cell membrane vesicles assessed as uptake of [3H]-estradiol-17beta-D-glucuronide in presence of ATP and GSH measured after 20 mins by membrane vesicle transport assay; format: ADME, cell-based
T1 sequence (O15439 whole entry): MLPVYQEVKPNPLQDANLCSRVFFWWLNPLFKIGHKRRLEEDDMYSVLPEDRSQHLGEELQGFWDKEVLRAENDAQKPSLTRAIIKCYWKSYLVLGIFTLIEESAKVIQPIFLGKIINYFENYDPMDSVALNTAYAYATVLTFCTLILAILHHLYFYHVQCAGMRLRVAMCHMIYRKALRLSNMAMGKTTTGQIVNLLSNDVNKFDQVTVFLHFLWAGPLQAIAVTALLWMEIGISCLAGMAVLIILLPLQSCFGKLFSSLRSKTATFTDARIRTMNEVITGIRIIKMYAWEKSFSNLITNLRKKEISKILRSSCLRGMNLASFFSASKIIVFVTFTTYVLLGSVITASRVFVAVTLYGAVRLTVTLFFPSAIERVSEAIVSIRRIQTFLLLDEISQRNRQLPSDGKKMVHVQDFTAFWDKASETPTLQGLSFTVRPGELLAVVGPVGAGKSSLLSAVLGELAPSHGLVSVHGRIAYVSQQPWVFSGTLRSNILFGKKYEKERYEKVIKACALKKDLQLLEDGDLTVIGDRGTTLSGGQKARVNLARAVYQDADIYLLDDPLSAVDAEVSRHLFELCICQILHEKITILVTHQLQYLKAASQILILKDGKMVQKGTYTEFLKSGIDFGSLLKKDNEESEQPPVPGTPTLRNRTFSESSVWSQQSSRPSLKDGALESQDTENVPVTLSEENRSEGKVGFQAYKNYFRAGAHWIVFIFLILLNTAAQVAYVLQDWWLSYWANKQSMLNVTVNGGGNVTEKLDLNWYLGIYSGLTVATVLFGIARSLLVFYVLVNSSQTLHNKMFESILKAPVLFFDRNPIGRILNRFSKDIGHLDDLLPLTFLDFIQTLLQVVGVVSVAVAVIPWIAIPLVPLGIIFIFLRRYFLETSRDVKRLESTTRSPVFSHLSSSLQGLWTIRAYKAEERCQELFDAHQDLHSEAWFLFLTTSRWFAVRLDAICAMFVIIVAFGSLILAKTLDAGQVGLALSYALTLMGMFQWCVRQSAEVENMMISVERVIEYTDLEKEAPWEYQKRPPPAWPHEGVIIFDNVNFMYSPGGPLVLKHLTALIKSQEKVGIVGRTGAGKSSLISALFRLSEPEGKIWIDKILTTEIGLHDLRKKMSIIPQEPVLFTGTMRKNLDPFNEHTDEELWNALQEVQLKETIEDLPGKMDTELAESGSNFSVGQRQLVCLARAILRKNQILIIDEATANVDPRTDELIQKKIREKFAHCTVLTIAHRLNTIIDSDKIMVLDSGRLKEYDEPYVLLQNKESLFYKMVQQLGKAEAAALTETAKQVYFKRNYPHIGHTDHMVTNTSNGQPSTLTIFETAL

Row | SMILES | IC50 [1] | IC50 [2] | IC50 [3] | IC50 [4]
1 | C[C@H]1c2cccc(O)c2C(=O)C2=C(O)[C@]3(O)C(=O)C(C(N)=O)=C(O)[C@@H](N(C)C)[C@@H]3[C@@H](O)[C@@H]21 [DOXYCYCLINE HYDROCHLORIDE] | > 133 µM | > 133 µM | > 133 µM | > 133 µM
2 | CC(C)NCC(O)COc1ccc(COCCOC(C)C)cc1 (centres undefined) [BISOPROLOL FUMARATE] | > 133 µM | > 133 µM | > 133 µM | > 133 µM
3 | CC(=O)O[C@H]1C[C@@H]2CC[C@@H]3[C@H](CC[C@@]4(C)[C@H]3C[C@H]([N+]3(C)CCCCC3)[C@@H]4OC(C)=O)[C@@]2(C)C[C@@H]1[N+]1(C)CCCCC1 [PANCURONIUM BROMIDE] | > 133 µM | > 133 µM | > 133 µM | > 133 µM
4 | CC(C)[C@H]1CC[C@H](C(=O)N[C@H](Cc2ccccc2)C(=O)O)CC1 [NATEGLINIDE] | > 133 µM | > 133 µM | 104 µM | > 133 µM
5 | CCCN1C[C@H](CSC)C[C@@H]2c3cccc4[nH]cc(c34)C[C@H]21 [PERGOLIDE MESYLATE] | > 133 µM | > 133 µM | > 133 µM | > 133 µM
6 | CN(C)CC[C@@H](c1ccc(Cl)cc1)c1ccccn1 [DEXCHLORPHENIRAMINE MALEATE] | > 133 µM | > 133 µM | > 133 µM | > 133 µM
7 | CNS(=O)(=O)Cc1ccc2[nH]cc(CCN(C)C)c2c1 | > 133 µM | > 133 µM | > 133 µM | > 133 µM
8 | C[C@@H](O[C@H]1OCCN(Cc2n[nH]c(=O)[nH]2)[C@H]1c1ccc(F)cc1)c1cc(C(F)(F)F)cc(C(F)(F)F)c1 [APREPITANT] | > 133 µM | > 133 µM | > 133 µM | > 133 µM
9 | CNCC[C@H](Oc1cccc2ccccc12)c1cccs1 [DULOXETINE HYDROCHLORIDE] | > 133 µM | > 133 µM | > 133 µM | > 133 µM
10 | CC(O)(P(=O)(O)O)P(=O)(O)O [ETIDRONATE DISODIUM] | > 133 µM | > 133 µM | > 133 µM | > 133 µM
11 | CC(c1cc2ccccc2s1)N(O)C(N)=O (centres undefined) [ZILEUTON] | > 133 µM | > 133 µM | > 133 µM | > 133 µM
12 | Cc1c(OCC(F)(F)F)ccnc1C[S+]([O-])c1nc2ccccc2[nH]1 (centres undefined) [LANSOPRAZOLE] | > 133 µM | > 133 µM | > 133 µM | > 133 µM
13 | CCOC(=O)[C@H](CCc1ccccc1)N[C@@H](C)C(=O)N1CCC[C@H]1C(=O)O [ENALAPRIL MALEATE] | > 133 µM | > 133 µM | > 133 µM | > 133 µM
14 | NCC(CC(=O)O)c1ccc(Cl)cc1 (centres undefined) [BACLOFEN] | > 133 µM | > 133 µM | > 133 µM | > 133 µM
15 | Cc1ccc(-c2ncc(Cl)cc2-c2ccc(S(C)(=O)=O)cc2)cn1 [ETORICOXIB] | 53.2 µM | > 133 µM | > 133 µM | 53 µM
16 | C[C@H](CS)C(=O)N1CCC[C@H]1C(=O)O [CAPTOPRIL] | > 133 µM | > 133 µM | > 133 µM | > 133 µM
17 | C#C[C@]1(O)CC[C@H]2[C@@H]3CCC4=CC(=O)CC[C@@H]4[C@H]3CC[C@@]21CC [LEVONORGESTREL] | > 133 µM | > 133 µM | > 133 µM | > 133 µM
18 | CNCCCN1c2ccccc2CCc2ccccc21 [DESIPRAMINE] | > 133 µM | > 133 µM | > 133 µM | > 133 µM
19 | CS(=O)(=O)N1CCN(Cc2cc3nc(-c4cccc5[nH]ncc45)nc(N4CCOCC4)c3s2)CC1 | 15.2 µM | > 133 µM | > 133 µM | 2.7 µM
20 | NC(=O)N1c2ccccc2C=Cc2ccccc21 [CARBAMAZEPINE] | > 133 µM | > 133 µM | > 133 µM | > 133 µM
21 | CC[C@]1(O)C[C@@H]2CN(CCc3c([nH]c4ccccc34)[C@@](C(=O)OC)(c3cc4c(cc3OC)N(C)[C@H]3[C@@](O)(C(=O)OC)[C@H](OC(C)=O)[C@]5(CC)C=CCN6CC[C@]43[C@@H]65)C2)C1 [VINBLASTINE] | > 133 µM | > 133 µM | > 133 µM | 35.1 µM
